The record followed here is US11400072B2, “Methods for the treatment of nonalcoholic fatty liver disease and/or lipodystrophy” (Coherus Biosciences, Inc., priority 2015, dated 2022).

The subject of this test is obese patients with NASH. The test can be described thus: 48 week double blind, placebo controlled, randomized, parallel group study of INT131 on hepatic histology of obese patients with NASH. Format: in vivo, human. The following applies: subjects receiving either 1.25 or 2 mg of INT131 once per day. From the text:
A 48 week double blind, placebo controlled, randomized, parallel group study will be conducted to evaluate the effect of INT131 on hepatic histology of obese patients with NASH. Specifically, at least 225 subjects are chosen that fit the following criteria: (1) age 18 to 75 years old; (2) body mass index (BMI) greater than 25 kg/m^2 and less than 40 kg/m^2; (3) NAFLD fibrosis score greater than or equal to 1.0 and less than 4.0; (4) average daily alcohol consumption of 10 g/day or less; (5) NAFLD activity score (“NAS”) of 3 or greater; (6) histologically proven steatohepatitis on a diagnostic liver biopsy performed within 6 months of randomization, confirmed central laboratory reading of slides (steatosis >5% lobular inflammation, any amount of ballooning); (7) women who meet the following criteria: women of childbearing potential with a negative urine pregnancy test at Screening who agree to use 1 or more approved methods of birth control during the study. Approved methods of birth control are: hormonal contraception, intrauterine device, diaphragm plus spermicide, female condom plus spermicide. […]

Setting [1] is: week 0 compared to week 48, statistically significant versus placebo group.

With `O=S(=O)(Nc1cc(Cl)c(Oc2cnc3ccccc3c2)c(Cl)c1)c1ccc(Cl)cc1Cl` [INT131, 2,4-Dichloro-N-[3,5-dichloro-4-(3-quinolinyloxy)phenyl]benzenesulfonamide], the “liver function test(s)” value is listed as “improvement” and the “most if not all other metabolic parameters outlined above” value is “improvement”. In addition, under setting [1], the “NAS (NAFLD activity score)” value is “reduction”; the ballooning grade result was “reduction”; the fibrosis stage result is “reduction”; the “portal and lobular inflammation grade” value is reported as “reduction”. Also, the steatosis grade result under setting [1] is on record as “reduction”.
